{"source": "patent US11932628B2", "about": "“Selective small molecule peptidomimetic melanocortin ligands” (REGENTS OF THE UNIVERSITY OF MINNESOTA, priority 2021, dated 2024)", "key": {"mMC4R [1]": {"biological_target": "T1, mMC4R (Mus musculus, UniProt P56450)", "T1 sequence (P56450 whole entry)": "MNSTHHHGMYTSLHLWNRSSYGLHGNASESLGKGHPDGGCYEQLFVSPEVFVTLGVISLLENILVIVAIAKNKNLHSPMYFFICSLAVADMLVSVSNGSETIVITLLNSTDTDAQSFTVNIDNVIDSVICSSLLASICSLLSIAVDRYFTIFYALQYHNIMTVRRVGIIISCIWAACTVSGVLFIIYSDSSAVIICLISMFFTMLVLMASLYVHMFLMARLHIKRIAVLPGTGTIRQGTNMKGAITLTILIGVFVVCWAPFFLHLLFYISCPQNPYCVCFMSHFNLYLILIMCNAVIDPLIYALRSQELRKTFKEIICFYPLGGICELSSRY", "assay": "Schild analysis of antagonist activity at mMC4R", "description": "The antagonist activity may also be reported as a Ki value, which is the inverse Log of pA2. […] Compounds were dissolved in DMSO at a stock concentration of 10^−2 M and stored at −20° C. until assayed. HEK-293 cells stably expressing the selected melanocortin receptors were transiently transfected with 4 μg of CRE/β-galactosidase reporter gene. Briefly, 5000-15000 post transfection cells were plated into collagen treated 96-well plates (Nunc) and incubated overnight. […] The assay media was aspirated, and 50 μL of lysis buffer (250 mM Tris-HCl pH=8.0 and 0.1% Triton X-100) was added. The plates were stored at −80° C. overnight. The plates containing the cell lysates were thawed the following day. Aliquots of 10 μL were taken from each well and transferred to another 96-well plate for relative protein determination. To the cell lysate plates, 40 μL of phosphate-buffered saline with 0.5% BSA was added to each well. Subsequently, 150 μL of substrate buffer (60 mM sodium phosphate, 1 mM MgCl2, 10 mM KCl, 5 mM β-mercaptoethanol, 2 mg/mL ONPG) was added to each well and the plates were incubated at 37° C. The sample absorbance, OD405, was measured using a 96-well plate reader (Molecular Devices). The relative protein was determined by adding 200 μL of 1:5 dilution BioRad G250 protein dye:water to the 10 μL of cell lysate sample taken previously, and the OD595 was measured on a 96-well plate reader (Molecular Devices). Data points were normalized to forskolin and the relative protein content were used as positive controls. The EC50 values represent the mean of three or more independent experiments. The EC50 estimates, and their associated standard errors of the mean, were determined by fitting the data to a nonlinear least-squares analysis using the PRISM program (v4.0, GraphPad Inc.).\nThe reported values are on a log scale. In order to put them into perspective, their approximate binding disassociation constants, Ki values, can be calculated through the following relationship pA2=−Log10 (Ki)."}, "mMC1R": {"biological_target": "mMC1R (Mus musculus, UniProt Q01727)", "sequence (Q01727 whole entry)": "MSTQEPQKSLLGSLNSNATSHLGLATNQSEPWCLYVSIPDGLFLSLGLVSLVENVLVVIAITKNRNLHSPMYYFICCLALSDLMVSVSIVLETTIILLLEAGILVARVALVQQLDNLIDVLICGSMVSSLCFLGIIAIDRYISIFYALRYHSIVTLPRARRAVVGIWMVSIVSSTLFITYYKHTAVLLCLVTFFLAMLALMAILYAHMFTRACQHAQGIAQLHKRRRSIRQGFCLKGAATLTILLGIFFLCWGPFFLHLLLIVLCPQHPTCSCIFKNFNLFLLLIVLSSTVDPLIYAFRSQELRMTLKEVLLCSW", "assay": "cAMP based functional bioassay (CRE/β-galactosidase reporter), agonist activity at mMC1R", "details": "for mMC1R Activity @ 10 μM (class) / mMC1R Activity @ 10 μM (relative activity, percent): reported where receptor not activated to full activity", "description": "(§1) The compounds were evaluated using a whole cell assay.\n(§2) Compounds were dissolved in DMSO at a stock concentration of 10^−2 M and stored at −20° C. until assayed. HEK-293 cells stably expressing the selected melanocortin receptors were transiently transfected with 4 μg of CRE/β-galactosidase reporter gene. Briefly, 5000-15000 post transfection cells were plated into collagen treated 96-well plates (Nunc) and incubated overnight. […] The assay media was aspirated, and 50 μL of lysis buffer (250 mM Tris-HCl pH=8.0 and 0.1% Triton X-100) was added. The plates were stored at −80° C. overnight. The plates containing the cell lysates were thawed the following day. Aliquots of 10 μL were taken from each well and transferred to another 96-well plate for relative protein determination. To the cell lysate plates, 40 μL of phosphate-buffered saline with 0.5% BSA was added to each well. Subsequently, 150 μL of substrate buffer (60 mM sodium phosphate, 1 mM MgCl2, 10 mM KCl, 5 mM β-mercaptoethanol, 2 mg/mL ONPG) was added to each well and the plates were incubated at 37° C. The sample absorbance, OD405, was measured using a 96-well plate reader (Molecular Devices). The relative protein was determined by adding 200 μL of 1:5 dilution BioRad G250 protein dye:water to the 10 μL of cell lysate sample taken previously, and the OD595 was measured on a 96-well plate reader (Molecular Devices). Data points were normalized to forskolin and the relative protein content were used as positive controls. The EC50 values represent the mean of three or more independent experiments. The EC50 estimates, and their associated standard errors of the mean, were determined by fitting the data to a nonlinear least-squares analysis using the PRISM program (v4.0, GraphPad Inc.).\n(§3) The results are tabulated in the form of EC50 values. In the case where the particular receptor was not activated to full activity at 100,000 nM, then the relative activity was reported."}, "mMC5R": {"biological_target": "mMC5R (Mus musculus, UniProt P41149)", "sequence (P41149 whole entry)": "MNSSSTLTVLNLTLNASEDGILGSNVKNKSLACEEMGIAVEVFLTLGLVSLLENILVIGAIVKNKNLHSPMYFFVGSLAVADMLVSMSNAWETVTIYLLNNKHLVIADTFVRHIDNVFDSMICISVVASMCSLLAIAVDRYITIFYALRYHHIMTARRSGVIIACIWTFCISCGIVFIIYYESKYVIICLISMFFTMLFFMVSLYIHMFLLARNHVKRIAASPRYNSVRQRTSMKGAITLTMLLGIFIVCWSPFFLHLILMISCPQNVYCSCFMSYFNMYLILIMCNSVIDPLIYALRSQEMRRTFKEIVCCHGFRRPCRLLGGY", "assay": "cAMP based functional bioassay (CRE/β-galactosidase reporter), agonist activity at mMC5R", "description": "as §1, §2, §3"}, "mMC3R": {"biological_target": "mMC3R (Mus musculus, UniProt P33033)", "sequence (P33033 whole entry)": "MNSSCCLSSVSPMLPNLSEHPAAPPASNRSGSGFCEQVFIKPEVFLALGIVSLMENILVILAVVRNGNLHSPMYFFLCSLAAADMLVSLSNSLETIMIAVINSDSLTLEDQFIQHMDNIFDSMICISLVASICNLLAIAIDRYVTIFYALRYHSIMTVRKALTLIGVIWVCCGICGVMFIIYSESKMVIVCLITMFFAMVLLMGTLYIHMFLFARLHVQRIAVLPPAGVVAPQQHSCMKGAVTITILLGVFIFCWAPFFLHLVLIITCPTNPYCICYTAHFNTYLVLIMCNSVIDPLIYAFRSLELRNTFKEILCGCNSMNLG", "assay": "cAMP based functional bioassay (CRE/β-galactosidase reporter), agonist activity at mMC3R", "description": "as §1, §2, §3"}, "mMC4R [2]": {"biological_target": "T1, mMC4R", "assay": "cAMP based functional bioassay (CRE/β-galactosidase reporter), agonist activity at mMC4R", "parameters": "Emax: dose or concentration left out as unconfirmed", "details": "for mMC4R Activity @ 10 μM (class) / mMC4R Activity @ 10 μM (relative activity, percent): reported where receptor not activated to full activity", "description": "as §1, §2, §3"}}}
{"smiles": "CC(C)C[C@@H]1CNC(=N)N1C[C@@H]1CCCN1C[C@@H](Cc1ccccc1)N1C[C@@H]([C@@H](C)O)N(CC23CC4CC(CC(C4)C2)C3)C1=N", "note": "[TPI 2509-13, (R)-1-((S)-3-(adamantan-1-ylmethyl)-2-imino-1-((R)-1-((S)-2-(((R)-2-imino-5-isobutylimidazolidin-1-yl)methyl)pyrrolidin-1-yl)-3-phenylpropan-2-yl)imidazolidin-4-yl)ethanol]", "values": [{"measurement": "Kb", "setting": "mMC4R [1]", "value": 2510, "unit": "nM"}, {"measurement": "mMC1R Activity @ 10 μM (class)", "setting": "mMC1R", "value": "B (B: >51%)"}, {"measurement": "mMC1R Activity @ 10 μM (relative activity, percent)", "setting": "mMC1R", "value": 41, "unit": "%"}, {"measurement": "EC50", "setting": "mMC5R", "value": "810 ± 280", "unit": "nM"}, {"measurement": "EC50", "setting": "mMC3R", "value": "360 ± 40", "unit": "nM"}, {"measurement": "mMC4R Activity @ 10 μM (class)", "setting": "mMC4R [2]", "value": "B (B: >51%)"}, {"measurement": "mMC4R Activity @ 10 μM (relative activity, percent)", "setting": "mMC4R [2]", "value": 58, "unit": "%"}]}
{"smiles": "CC(C)[C@@H]1CNC(=N)N1C[C@@H]1CCCN1C[C@@H](Cc1ccccc1)N1C[C@@H]([C@@H](C)O)N(CC23CC4CC(CC(C4)C2)C3)C1=N", "note": "[TPI 2509-31, (R)-1-((S)-3-(adamantan-1-ylmethyl)-2-imino-1-((R)-1-((S)-2-(((R)-2-imino-5-isopropylimidazolidin-1-yl)methyl)pyrrolidin-1-yl)-3-phenylpropan-2-yl)imidazolidin-4-yl)ethanol]", "values": [{"measurement": "Kb", "setting": "mMC4R [1]", "value": 1580, "unit": "nM"}, {"measurement": "EC50", "setting": "mMC1R", "value": "440 ± 140", "unit": "nM"}, {"measurement": "EC50", "setting": "mMC5R", "value": "180 ± 90", "unit": "nM"}, {"measurement": "EC50", "setting": "mMC3R", "value": "360 ± 10", "unit": "nM"}, {"measurement": "mMC4R Activity @ 10 μM (relative activity, percent)", "setting": "mMC4R [2]", "value": 50, "unit": "%"}]}
{"smiles": "CC(C)C[C@@H]1CNC(=N)N1C[C@@H]1CCCN1C[C@@H](Cc1ccccc1)N1C[C@@H]([C@@H](C)O)N(CC2CCC(C(C)(C)C)CC2)C1=N", "note": "(stereo partly drawn) [TPI 2509-14, (R)-1-((S)-3-((4-(tert-butyl)cyclohexyl)methyl)-2-imino-1-((R)-1-((S)-2-(((R)-2-imino-5-isobutylimidazolidin-1-yl)methyl)pyrrolidin-1-yl)-3-phenylpropan-2-yl)imidazolidin-4-yl)ethanol]", "values": [{"measurement": "Kb", "setting": "mMC4R [1]", "value": 100, "unit": "nM"}, {"measurement": "Ki", "setting": "mMC4R [1]", "value": 100, "unit": "nM"}, {"measurement": "mMC4R Antagonist pA2", "setting": "mMC4R [1]; Schild analysis", "value": "7.0±0.7"}, {"measurement": "mMC1R Activity @ 10 μM (class)", "setting": "mMC1R", "value": "B (B: >51%)"}, {"measurement": "mMC1R Activity @ 10 μM (relative activity, percent)", "setting": "mMC1R", "value": 58, "unit": "%"}, {"measurement": "EC50", "setting": "mMC5R", "value": "530 ± 50", "unit": "nM"}, {"measurement": "EC50", "setting": "mMC3R", "value": "310 ± 60", "unit": "nM"}, {"measurement": "EC50 values at the melanocortin-3 receptor (in words)", "setting": "mMC3R", "value": "nanomolar"}, {"measurement": "Emax", "setting": "mMC4R [2]; read-out: maximal activation at the melanocortin-4 receptor", "value": "> 20", "unit": "%"}, {"measurement": "mMC4R Activity @ 10 μM (class)", "setting": "mMC4R [2]", "value": "A (A: <50%)"}]}
